Measured values as given in patent publication US6737383B1, “Herbicidal oxadiazolidines” (priority 1999, dated 2004).

Columns and labels:
cocklebur = assay: Test B pre/postemergence cocklebur; assay type: in vivo, Xanthium strumarium
In short: (§1)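 Herbicidal effect was estimated by eye on a ten-point control scale after plants spent twelve to sixteen days in a greenhouse following soil or foliar treatment. Foliar sprays targeted plants at one to four leaves; all doses were formulated in a non-phytotoxic solvent with surfactant.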

purple nutsedge = assay: Test B pre/postemergence purple nutsedge; assay type: in vivo, Cyperus rotundus
In short: as §1

smallflower flatsedge = assay: Test B flood test smallflower flatsedge; assay type: in vivo, Cyperus difformis
In short: (§2)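 Plants were grown to the 2-leaf stage before treatment with test chemical, then held in a greenhouse for twelve to sixteen days. Injury was visually rated against untreated controls on a 0–10 scale, where 0 is no effect and 10 is complete control.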

sugar beet = assay: Test B pre/postemergence sugar beet; assay type: in vivo, Beta vulgaris
In short: as §1

morningglory = assay: Test B pre/postemergence morningglory; assay type: in vivo, Ipomoea hederacea
In short: as §1

pigweed = assay: Test B pre/postemergence pigweed; assay type: in vivo, Amaranthus retroflexus
In short: as §1

crabgrass = assay: Test B pre/postemergence crabgrass; assay type: in vivo, Digitaria sanguinalis
In short: as §1

velvetleaf = assay: Test B pre/postemergence velvetleaf; assay type: in vivo, Abutilon theophrasti
In short: as §1

blackgrass = assay: Test B pre/postemergence blackgrass; assay type: in vivo, Alopecurus myosuroides
In short: as §1

rape = assay: Test B pre/postemergence rape; assay type: in vivo, Brassica napus
In short: as §1

corn = assay: Test B pre/postemergence corn; assay type: in vivo, Zea mays
In short: as §1

rice = assay: Test B flood test rice; assay type: in vivo, Oryza sativa
In short: as §2

duck salad = assay: Test B flood test duck salad; assay type: in vivo, Heteranthera limosa
In short: as §2

surinam grass = assay: Test B pre/postemergence surinam grass; assay type: in vivo, Brachiaria decumbens
In short: as §1

giant foxtail = assay: Test B pre/postemergence giant foxtail; assay type: in vivo, Setaria faberii
In short: as §1

wheat = assay: Test B pre/postemergence wheat; assay type: in vivo, Triticum aestivum
In short: as §1

[1] = Postemergence, Rate 31 g/ha, visual rating, scale 0 to 10 (0 no effect, 10 complete control)
[2] = Preemergence, Rate 31 g/ha, visual rating, scale 0 to 10 (0 no effect, 10 complete control)
[3] = Preemergence, Rate 62 g/ha, scale of 0 to 10 where 0 is no effect and 10 is complete control
[4] = Rate 16 g/ha, Postemergence, scale 0 to 10, 0 no effect, 10 complete control
[5] = Rate 16 g/ha, Preemergence, scale 0 to 10, 0 no effect, 10 complete control
[6] = Rate 62 g/ha, Postemergence, scale 0 to 10 (0 no effect, 10 complete control)
[7] = Rate 125 g/ha, Postemergence, scale of 0 to 10 where 0 is no effect and 10 is complete control
[8] = Rate 125 g/ha, Preemergence, scale of 0 to 10 where 0 is no effect and 10 is complete control
[9] = Rate 16 g/ha, head printed Pre-emergence (flood test species), scale 0 to 10, 0 no effect, 10 complete control
[10] = Rate 31 g/ha, Pre-emergence section (flood test species), scale 0 to 10
[11] = Rate 62 g/ha, headed Pre-emergence (flood test species), scale 0 to 10 (0 no effect, 10 complete control)
[12] = Rate 125 g/ha, Pre-emergence, flood test species, scale 0 to 10 where 0 is no effect and 10 is complete control
[13] = Rate 250 g/ha, Pre-emergence, flood-test species, scale 0 to 10, 0 is no effect, 10 is complete control
[14] = Rate 500 g/ha, Pre-emergence, flood test species, scale 0 to 10 (0 no effect, 10 complete control)

C=CCCCn1c(=O)on(C(=O)N(c2ccc(F)cc2)C(C)C)c1=O [Compound 291]
7: Giant foxtail plant response rating (giant foxtail; [5])
1: Morningglory plant response rating (morningglory; [1]) | Morningglory plant response rating (morningglory; [4]) | Blackgrass plant response rating (blackgrass; [6]) | Rape plant response rating (rape; [7])
3: B. signalgrass plant response rating (surinam grass; [8])
2: Blackgrass plant response rating (blackgrass; [7]) | Rice plant response rating (rice; [12])
8: Blackgrass plant response rating (blackgrass; [8]) | Giant foxtail plant response rating (giant foxtail; [2]) | Giant foxtail plant response rating (giant foxtail; [3])
4: Morningglory plant response rating (morningglory; [6]) | Morningglory plant response rating (morningglory; [7])
9: Giant foxtail plant response rating (giant foxtail; [8])
0: Cocklebur plant response rating (cocklebur; [1]) | Cocklebur plant response rating (cocklebur; [2]) | Cocklebur plant response rating (cocklebur; [3]) | Cocklebur plant response rating (cocklebur; [4]) | Cocklebur plant response rating (cocklebur; [5]) | Cocklebur plant response rating (cocklebur; [6]) | Cocklebur plant response rating (cocklebur; [7]) | Cocklebur plant response rating (cocklebur; [8]) | Nutsedge plant response rating (purple nutsedge; [1]) | Nutsedge plant response rating (purple nutsedge; [2]) | Nutsedge plant response rating (purple nutsedge; [3]) | Nutsedge plant response rating (purple nutsedge; [4]) | Nutsedge plant response rating (purple nutsedge; [5]) | Nutsedge plant response rating (purple nutsedge; [6]) | Nutsedge plant response rating (purple nutsedge; [7]) | Nutsedge plant response rating (purple nutsedge; [8]) | S. Flatsedge plant response rating (smallflower flatsedge; [9]) | S. Flatsedge plant response rating (smallflower flatsedge; [10]) | S. Flatsedge plant response rating (smallflower flatsedge; [11]) | S. Flatsedge plant response rating (smallflower flatsedge; [12]) | S. Flatsedge plant response rating (smallflower flatsedge; [13]) | S. Flatsedge plant response rating (smallflower flatsedge; [14]) | Sugarbeets plant response rating (sugar beet; [1]) | Sugarbeets plant response rating (sugar beet; [2]) | Sugarbeets plant response rating (sugar beet; [3]) | Sugarbeets plant response rating (sugar beet; [4]) | Sugarbeets plant response rating (sugar beet; [5]) | Sugarbeets plant response rating (sugar beet; [6]) | Sugarbeets plant response rating (sugar beet; [7]) | Sugarbeets plant response rating (sugar beet; [8]) | Morningglory plant response rating (morningglory; [2]) | Morningglory plant response rating (morningglory; [3]) | Morningglory plant response rating (morningglory; [5]) | Morningglory plant response rating (morningglory; [8]) | Redroot pigweed plant response rating (pigweed; [1]) | Redroot pigweed plant response rating (pigweed; [2]) | Redroot pigweed plant response rating (pigweed; [3]) | Redroot pigweed plant response rating (pigweed; [4]) | Redroot pigweed plant response rating (pigweed; [5]) | Redroot pigweed plant response rating (pigweed; [6]) | Redroot pigweed plant response rating (pigweed; [7]) | Redroot pigweed plant response rating (pigweed; [8]) | Crabgrass plant response rating (crabgrass; [1]) | Crabgrass plant response rating (crabgrass; [2]) | Crabgrass plant response rating (crabgrass; [3]) | Crabgrass plant response rating (crabgrass; [4]) | Crabgrass plant response rating (crabgrass; [5]) | Crabgrass plant response rating (crabgrass; [6]) | Crabgrass plant response rating (crabgrass; [7]) | Crabgrass plant response rating (crabgrass; [8]) | Velvetleaf plant response rating (velvetleaf; [1]) | Velvetleaf plant response rating (velvetleaf; [2]) | Velvetleaf plant response rating (velvetleaf; [3]) | Velvetleaf plant response rating (velvetleaf; [4]) | Velvetleaf plant response rating (velvetleaf; [5]) | Velvetleaf plant response rating (velvetleaf; [6]) | Velvetleaf plant response rating (velvetleaf; [7]) | Velvetleaf plant response rating (velvetleaf; [8]) | Blackgrass plant response rating (blackgrass; [1]) | Blackgrass plant response rating (blackgrass; [2]) | Blackgrass plant response rating (blackgrass; [3]) | Blackgrass plant response rating (blackgrass; [4]) | Blackgrass plant response rating (blackgrass; [5]) | Rape plant response rating (rape; [1]) | Rape plant response rating (rape; [2]) | Rape plant response rating (rape; [3]) | Rape plant response rating (rape; [4]) | Rape plant response rating (rape; [5]) | Rape plant response rating (rape; [6]) | Rape plant response rating (rape; [8]) | Corn plant response rating (corn; [1]) | Corn plant response rating (corn; [2]) | Corn plant response rating (corn; [3]) | Corn plant response rating (corn; [4]) | Corn plant response rating (corn; [5]) | Corn plant response rating (corn; [6]) | Corn plant response rating (corn; [7]) | Corn plant response rating (corn; [8]) | Rice plant response rating (rice; [9]) | Rice plant response rating (rice; [10]) | Rice plant response rating (rice; [11]) | Rice plant response rating (rice; [13]) | Rice plant response rating (rice; [14]) | Ducksalad plant response rating (duck salad; [9]) | Ducksalad plant response rating (duck salad; [10]) | Ducksalad plant response rating (duck salad; [11]) | Ducksalad plant response rating (duck salad; [12]) | Ducksalad plant response rating (duck salad; [13]) | Ducksalad plant response rating (duck salad; [14]) | B. signalgrass plant response rating (surinam grass; [1]) | B. signalgrass plant response rating (surinam grass; [2]) | B. signalgrass plant response rating (surinam grass; [3]) | B. signalgrass plant response rating (surinam grass; [4]) | B. signalgrass plant response rating (surinam grass; [5]) | B. signalgrass plant response rating (surinam grass; [6]) | B. signalgrass plant response rating (surinam grass; [7]) | Giant foxtail plant response rating (giant foxtail; [1]) | Giant foxtail plant response rating (giant foxtail; [4]) | Giant foxtail plant response rating (giant foxtail; [6]) | Giant foxtail plant response rating (giant foxtail; [7]) | Wheat plant response rating (wheat; [1]) | Wheat plant response rating (wheat; [2]) | Wheat plant response rating (wheat; [3]) | Wheat plant response rating (wheat; [4]) | Wheat plant response rating (wheat; [5]) | Wheat plant response rating (wheat; [6]) | Wheat plant response rating (wheat; [7]) | Wheat plant response rating (wheat; [8])
